Several values for one entry are separate records, joined by “and”; a condition that tells them apart may be missing. Equal values may be shown once. Read-outs that look alike come from different tables or passages of the source.
Assays:
[1] = tested on: Blumeria graminis f.sp. hordei; assay: Blumeria test (barley)/preventive; format: in vivo
[2] = tested on: Fusarium nivale (var. majus); assay: Fusarium nivale (var. majus)-test (wheat)/preventive; conditions: for pest or weed control at 20 ppm / pest or weed control at 80 ppm / pest or weed control at 40 ppm / pest or weed control at 10 ppm: Microdochium nivale, in Triticum aestivum, 120 h; for pest or weed control at 20 ppm: 20 ppm a.i.; for pest or weed control at 80 ppm: 80 ppm a.i.
Protocol: After the spray coating has been dried, the plants are slightly injured by using a sandblast and afterwards they are sprayed with a conidia suspension of Fusarium nivale (var. majus).
The plants are placed in the greenhouse under a translucent incubation cabinet at a temperature of approximately 10° C. and a relative atmospheric humidity of approximately 100%.
The test is evaluated 5 days after the inoculation.

[3] = tested on: Sphaerotheca fuliginea; assay: Sphaerotheca test (cucumbers)/preventive; format: in vivo
[4] = tested on: Puccinia triticina; assay: Puccinia triticina-test (wheat)/preventive; format: in vivo; conditions: preventive, evaluated 8 days after inoculation
[5] = tested on: Venturia inaequalis; assay: Venturia test (apples)/preventive; conditions: for pest or weed control at 1 ppm: 1 ppm a.i.
Protocol: After the spray coating has dried on, the plants are inoculated with an aqueous conidia suspension of the causal agent of apple scab (Venturia inaequalis) and then remain for 1 day in an incubation cabinet at approximately 20° C. and a relative atmospheric humidity of 100%.
The plants are then placed in a greenhouse at approximately 21° C. and a relative atmospheric humidity of approximately 90%.
The test is evaluated 10 days after the inoculation.

[6] = tested on: Phytophthora infestans; assay: whole plant or invertebrate; format: in vivo
[7] = tested on: Leptosphaeria nodorum; assay: Leptosphaeria nodorum test (wheat)/preventive; format: in vivo
[8] = tested on: Alternaria solani; assay: Alternaria test (tomatoes)/preventive; format: in vivo
[9] = tested on: Septoria tritici; assay: Septoria tritici-test (wheat)/preventive; format: in vivo; conditions: preventive, evaluated 21 days after inoculation
[10] = read-out: Efficacy in % found, Table 8c
[11] = read-out: Efficacy in % found, Table 8e
[12] = Zymoseptoria tritici, 504 h, application rate 10 ppm a.i., read-out: Efficacy in % found
[13] = read-out: Efficacy in % found, Table 8e, 40 ppm a.i.
[14] = Parastagonospora nodorum, 192 h, application rate 10 ppm, wheat, preventive, evaluated 8 days after inoculation, read-out: Efficacy in % found
[15] = Blumeria graminis, 168 h, Table 6f, 10 ppm a.i., read-out: Efficacy in % found
[16] = Phytophthora infestans, 72 h, read-out: Efficacy in % found

Compound: CC(C)CC(C)c1sccc1NC(=O)c1cn(C)nc1C(F)(F)F (centres unmarked) [B2.21, penthiopyrad]
- pest or weed control at 20 ppm ([1]; Blumeria graminis, 168 h, Table 6a, 20 ppm a.i., read-out: Efficacy in % found): 20%
- pest or weed control at 20 ppm [2, 10]: 13%
- pest or weed control at 80 ppm [2, 11]: 0%
- pest or weed control at 0.5 ppm ([3]; Podosphaera fuliginea, 168 h, Table 4d, 0.5 ppm a.i., read-out: Efficacy in % found): 0%
- pest or weed control at 80 ppm ([4]; Puccinia triticina, 192 h, application rate 80 ppm a.i., read-out: Efficacy in % found): 78%
- pest or weed control at 0.5 ppm ([5]; Venturia inaequalis, 240 h, read-out: Efficacy in % found, Table 2d, 0.5 ppm a.i.): 0%

Compound: mancozeb [B5.23]
- Efficacy in % found ([1]; Table 6c, 400 ppm): 0%
- Efficacy in % found ([3]; Table 4a, 25 ppm a.i.): 0%
- Efficacy in % found ([6]; Table 1c, 50 ppm a.i.): 45%
- Efficacy in % found ([7]; Table 9e, 100 ppm a.i.): 0%
- Efficacy in % found ([8]; Table 3a, 50 ppm a.i.): 56%
- Efficacy in % found ([8]; Table 3d, 50 ppm): 0%

Compound: CC(C)c1ccc(F)cc1CN(C(=O)c1c(C(F)F)nn(C)c1F)C1CC1 [A7, N-cyclopropyl-3-(difluoromethyl)-5-fluoro-N-(5-fluoro-2-isopropylbenzyl)-1-methyl-1H-pyrazole-4-carboxamide]
- pest or weed control at 10 ppm [9, 12]: 71%

Compound: Fc1ccc([C@]2(Cn3cncn3)O[C@H]2c2ccccc2Cl)cc1 (racemic) [B1.12, epoxiconazole]
- pest or weed control at 40 ppm [2, 13]: 0%
- pest or weed control at 10 ppm [9, 12]: 0%
- pest or weed control at 10 ppm ([7]; Parastagonospora nodorum, 192 h, Table 9a, 10 ppm a.i., read-out: Efficacy in % found): 0%
- pest or weed control at 10 ppm [7, 14]: 29%

Compound: CCCC1COC(Cn2cncn2)(c2ccc(Cl)cc2Cl)O1 (centres unmarked) [B1.40, propiconazole]
- pest or weed control at 20 ppm ([2]; read-out: Efficacy in % found, Table 8b): 0%
- pest or weed control at 20 ppm ([7]; Parastagonospora nodorum, 192 h, application rate 20 ppm, wheat, preventive, evaluated 8 days after inoculation, read-out: Efficacy in % found): 0%
- pest or weed control at 2 ppm ([8]; Alternaria solani, 72 h, Table 3c, 2 ppm, read-out: Efficacy in % found): 0%

Compound: propamocarb-HCl [B10.10]
- Efficacy in % found ([1]; Table 6c, 400 ppm): 13%
- Efficacy in % found ([3]; Table 4a, 50 ppm a.i.): 0%
- Efficacy in % found ([3]; Table 4d, 50 ppm a.i.): 70%
- Efficacy in % found ([5]; Table 2a, 50 ppm a.i.): 0%
- Efficacy in % found ([8]; Table 3a, 50 ppm a.i.): 0%

Compound: Cn1cc(C(=O)Nc2ccc(F)cc2-c2ccc(Cl)c(Cl)c2)c(C(F)F)n1 [B2.1, bixafen]
- Efficacy in % found ([2]; Table 8b, 10 ppm a.i.): 14%
- Efficacy in % found ([3]; Table 4d, 0.5 ppm a.i.): 67%
- Efficacy in % found ([9]; application rate 10 ppm a.i.): 29%
- Efficacy in % found ([9]; application rate 40 ppm a.i.): 29%
- Efficacy in % found ([4]; application rate 40 ppm a.i.): 22%
- Efficacy in % found ([7]; Table 9a, 40 ppm a.i.): 0%
- Efficacy in % found ([7]; application rate 40 ppm, wheat, preventive, evaluated 8 days after inoculation): 0%

Compound: Cc1ccc(C(C)C)c(CN(C(=O)c2c(C(F)F)nn(C)c2F)C2CC2)c1 [A12, N-cyclopropyl-3-(difluoromethyl)-5-fluoro-N-(2-isopropyl-5-methylbenzyl)-1-methyl-1H-pyrazole-4-carboxamide]
- pest or weed control at 10 ppm [1, 15]: 50%
- pest or weed control at 40 ppm ([4]; Puccinia triticina, 192 h, application rate 40 ppm a.i., read-out: Efficacy in % found): 89%

Compound: CC(C)(C)C(O)(CCc1ccc(Cl)cc1)Cn1cncn1 (centres unmarked) [B1.47, tebuconazole]
- pest or weed control at 10 ppm [1, 15]: 50%
- pest or weed control at 10 ppm ([1]; Blumeria graminis, 168 h, Table 6d, 10 ppm, read-out: Efficacy in % found): 33%
- pest or weed control at 10 ppm ([2]; read-out: Efficacy in % found, Table 8c, 10 ppm a.i.): 25%
- pest or weed control at 40 ppm [2, 13]: 0%
- pest or weed control at 40 ppm ([9]; Zymoseptoria tritici, 504 h, application rate 40 ppm a.i., read-out: Efficacy in % found): 71%
- pest or weed control at 4 ppm ([4]; Puccinia triticina, 192 h, application rate 4 ppm a.i., read-out: Efficacy in % found): 33%
- pest or weed control at 10 ppm [7, 14]: 33%

Compound: CCCCCCCCc1c(CC)nc2ncnn2c1N [B3.1, ametoctradin]
- Efficacy in % found ([6]; Table 1a, 5 ppm a.i.): 48%

Compound: Cn1cc(C(=O)Nc2ccccc2-c2cc(F)c(F)c(F)c2)c(C(F)F)n1 [B2.8, fluxapyroxad]
- Efficacy in % found ([3]; Table 4d, 0.5 ppm a.i.): 0%
- Efficacy in % found ([9]; application rate 10 ppm a.i.): 0%
- Efficacy in % found ([4]; application rate 10 ppm a.i.): 0%
- Efficacy in % found ([4]; application rate 40 ppm a.i.): 67%
- Efficacy in % found ([5]; Table 2d, 0.25 ppm a.i.): 19%
- Efficacy in % found ([7]; application rate 10 ppm, wheat, preventive, evaluated 8 days after inoculation): 0%

Compound: N#Cc1ccccc1NC(=O)c1snc(Cl)c1Cl [B6.2, isotianil]
- Efficacy in % found ([1]; Table 6b, 100 ppm a.i.): 38%
- Efficacy in % found ([8]; Table 3b, 50 ppm): 27%

Compound: N#Cc1c(Cl)c(Cl)c(Cl)c(C#N)c1Cl [B5.4, chlorothalonil]
- pest or weed control at 12.5 ppm ([5]; Venturia inaequalis, 240 h, read-out: Efficacy in % found, Table 2a, 12.5 ppm a.i.): 35%
- pest or weed control at 50 ppm [6, 16]: 75%
- pest or weed control at 50 ppm ([8]; Alternaria solani, 72 h, Table 3a, 50 ppm a.i., read-out: Efficacy in % found): 35%

Compound: folpet [B5.16]
- Efficacy in % found ([2]; Table 8f, 200 ppm a.i.): 50%
- Efficacy in % found ([3]; Table 4a, 25 ppm a.i.): 0%
- Efficacy in % found ([5]; Table 2a, 12.5 ppm a.i.): 47%
- Efficacy in % found ([5]; Table 2e, 10 ppm a.i.): 45%
- Efficacy in % found ([7]; application rate 400 ppm a.i., wheat, preventive, evaluated 8 days after inoculation): 44%
- Efficacy in % found ([8]; Table 3e, 12.5 ppm): 39%

Compound: Cn1c(=O)c2sc3c(=O)n(C)c(=O)c3sc2c1=O [B15.60, 2,6-dimethyl-1H,5H-[1,4]dithiino[2,3-c:5,6-c′]dipyrrole-1,3,5,7(2H,6H)-tetrone]
- pest or weed control at 50 ppm ([8]; Alternaria solani, 72 h, Table 3d, 50 ppm, read-out: Efficacy in % found): 0%

Compound: CCO[PH](=O)O [B15.24, fosetyl-Al]
- Efficacy in % found ([3]; Table 4a, 50 ppm a.i.): 0%
- Efficacy in % found ([3]; Table 4d, 12.5 ppm a.i.): 0%
- Efficacy in % found ([5]; Table 2a, 50 ppm a.i.): 0%
- Efficacy in % found ([8]; Table 3a, 50 ppm a.i.): 40%

Compound: CCN(C)C=Nc1cc(C)c(Oc2nc(Cc3ccc(Cl)cc3)ns2)cc1C [B15.78, N′-(4-{[3-(4-chlorobenzyl)-1,2,4-thiadiazol-5-yl]oxy}-2,5-dimethylphenyl)-N-ethyl-N-methylimidoformamide]
- pest or weed control at 62.5 ppm ([4]; Puccinia triticina, 192 h, application rate 62.5 ppm a.i., read-out: Efficacy in % found): 57%
- pest or weed control at 5 ppm ([5]; Venturia inaequalis, 240 h, read-out: Efficacy in % found, Table 2f, 5 ppm a.i.): 16%

Compound: COCC(=O)N(c1c(C)cccc1C)[C@H](C)C(=O)OC [B12.10, mefenoxam]
- Efficacy in % found ([1]; Table 6f, 400 ppm a.i.): 25%
- Efficacy in % found ([7]; application rate 100 ppm, wheat, preventive, evaluated 8 days after inoculation): 0%

Compound: CC1(C)CCC(Cc2ccc(Cl)cc2)C1(O)Cn1cncn1 (centres unmarked) [B1.30, metconazole]
- pest or weed control at 20 ppm [2, 10]: 13%
- pest or weed control at 80 ppm [2, 11]: 0%
- pest or weed control at 5 ppm ([3]; Podosphaera fuliginea, 168 h, Table 4d, 5 ppm a.i., read-out: Efficacy in % found): 77%
- pest or weed control at 20 ppm ([4]; Puccinia triticina, 192 h, application rate 20 ppm a.i., read-out: Efficacy in % found): 44%
- pest or weed control at 1 ppm ([5]; Venturia inaequalis, 240 h, read-out: Efficacy in % found, Table 2c): 38%
- pest or weed control at 80 ppm ([7]; Parastagonospora nodorum, 192 h, application rate 80 ppm, wheat, preventive, evaluated 8 days after inoculation, read-out: Efficacy in % found): 44%

Compound: COC(=O)N(OC)c1ccccc1COc1ccn(-c2ccc(Cl)cc2)n1 [B3.17, pyraclostrobin]
- pest or weed control at 40 ppm ([1]; Blumeria graminis, 168 h, Table 6b, 40 ppm a.i., read-out: Efficacy in % found): 20%
- pest or weed control at 40 ppm ([2]; read-out: Efficacy in % found, Table 8a, 40 ppm): 93%
- pest or weed control at 10 ppm ([2]; read-out: Efficacy in % found, Table 8e, 10 ppm a.i.): 57%
- pest or weed control at 10 ppm ([2]; read-out: Efficacy in % found, Table 8d, 10 ppm a.i.): 71%
- pest or weed control at 2 ppm ([3]; Podosphaera fuliginea, 168 h, Table 4d, 2 ppm a.i., read-out: Efficacy in % found): 0%
- pest or weed control at 1 ppm ([5]; Venturia inaequalis, 240 h, read-out: Efficacy in % found, Table 2b): 79%
- pest or weed control at 1 ppm [6, 16]: 53%
- pest or weed control at 40 ppm ([7]; Parastagonospora nodorum, 192 h, application rate 40 ppm, wheat, preventive, evaluated 8 days after inoculation, read-out: Efficacy in % found): 57%

Compound: O=C(NCc1ncc(C(F)(F)F)cc1Cl)c1c(Cl)cccc1Cl [B4.6, fluopicolide]
- Efficacy in % found ([1]; Table 6f, 400 ppm a.i.): 13%
- Efficacy in % found ([6]; Table 1a, 1 ppm a.i.): 13%
- Efficacy in % found ([7]; Table 9c, 100 ppm a.i.): 17%

Compound: propineb [B5.29]
- Efficacy in % found ([1]; Table 6c, 400 ppm): 13%
- Efficacy in % found ([3]; Table 4a, 50 ppm a.i.): 0%
- Efficacy in % found ([3]; Table 4d, 50 ppm a.i.): 70%
- Efficacy in % found ([6]; Table 1c, 50 ppm a.i.): 50%
- Efficacy in % found ([8]; Table 3a, 50 ppm a.i.): 33%
- Efficacy in % found ([8]; Table 3d, 50 ppm): 0%

Compound: spiroxamine [B1.46]
- Efficacy in % found ([3]; Table 4b, 25 ppm a.i.): 0%
- Efficacy in % found ([4]; application rate 200 ppm a.i.): 0%
- Efficacy in % found ([7]; Table 9a, 200 ppm a.i.): 29%
- Efficacy in % found ([7]; application rate 200 ppm, wheat, preventive, evaluated 8 days after inoculation): 22% and 40%

Compound: Cn1cc(C(=O)Nc2cccc3c2[C@@H]2CC[C@H]3C2=C(Cl)Cl)c(C(F)F)n1 (racemic) [B2.29, benzovindiflupyr]
- Efficacy in % found ([2]; Table 8f, 120 ppm a.i.): 25%
- Efficacy in % found ([5]; Table 2e, 0.1 ppm a.i.): 76%
- Efficacy in % found ([8]; Table 3e, 0.5 ppm): 21%

— US12642271B2, “Active compound combinations comprising a (thio)carboxamide derivative and a fungicidal compound” (Bayer CropScience Aktiengesellschaft, priority 2011, dated 2026)
